Test results taken from PubChem BioAssay AID192 (DTP/NCI, 2004).
“And” between values parts separate entries of the source, which are not always exact repeats. Equal entries are not always repeated. Inconclusive results and toxic doses are left out. Rule for the calls: active = survival T/C of 150% or more; inactive = T/C below 125% in these data.

System: BDF1 mice, B16 melanoma ip, median survival T/C
Assay: NCI In Vivo Anticancer Drug Screen. Data for tumor model B16 Melanoma (intraperitoneal) in B6D2F1 (BDF1) mice
Conditions: endpoint: median survival time, higher = longer survival
Protocol: The antitumor activity of compounds was measured in mice bearing transplantable tumors. Survival or tumor size were measured and the results are expressed as the measurement made in the treated group (T) divided by the measurement made in the vehicle treated control group (C). The tumor model used in this assay is B16 Melanoma (intraperitoneal) in B6D2F1 (BDF1) mice

Measured: T/C

COc1cc(NS(C)(=O)=O)ccc1Nc1c2ccccc2nc2ccccc12
inactive: dose: 0.1 mg/kg/injection, schedule: Q01DX009 (ip), vehicle: saline 102 % of control | dose: 0.2 mg/kg/injection, schedule: Q01DX009 (ip), vehicle: saline 118 % of control | dose: 0.25 mg/kg/injection, schedule: Q01DX009 (ip), vehicle: other 119 % of control | dose: 0.5 mg/kg/injection, schedule: Q01DX009 (ip), vehicle: other 120 % of control | dose: 0.5 mg/kg/injection, schedule: Q03HX024 (oral), vehicle: lactic acid 100 % of control | dose: 0.75 mg/kg/injection, schedule: Q01DX009 (ip), vehicle: other 113 % of control | dose: 0.8 mg/kg/injection, schedule: Q01DX005 (iv), vehicle: lactic acid 100 % of control | dose: 0.8 mg/kg/injection, schedule: Q04DX003 (iv), vehicle: lactic acid 102 % of control | dose: 1.0 mg/kg/injection, schedule: Q01DX009 (oral), vehicle: lactic acid 96 % of control | dose: 1.0 mg/kg/injection, schedule: Q01DX009 (oral), vehicle: other 106 % of control and 109 % of control | dose: 1.0 mg/kg/injection, schedule: Q03HX024 (oral), vehicle: lactic acid 97 % of control | dose: 1.0 mg/kg/injection, schedule: Q04DX003 (ip), vehicle: other 118 % of control | dose: 1.5 mg/kg/injection, schedule: Q01DX009 (ip), vehicle: other 114 % of control | dose: 1.6 mg/kg/injection, schedule: Q01DX005 (iv), vehicle: lactic acid 110 % of control | dose: 1.6 mg/kg/injection, schedule: Q04DX003 (iv), vehicle: lactic acid 92 % of control | dose: 2.0 mg/kg/injection, schedule: Q01DX009 (oral), vehicle: lactic acid 98 % of control | dose: 2.0 mg/kg/injection, schedule: Q01DX009 (oral), vehicle: other 105 % of control and 109 % of control | dose: 2.0 mg/kg/injection, schedule: Q03HX016 (oral), vehicle: lactic acid 101 % of control | dose: 2.0 mg/kg/injection, schedule: Q03HX024 (oral), vehicle: lactic acid 101 % of control | dose: 2.0 mg/kg/injection, schedule: Q04DX003 (oral), vehicle: lactic acid 105 % of control | dose: 2.0 mg/kg/injection, schedule: Q04DX003 (oral), vehicle: other 105 % of control and 96 % of control | dose: 3.12 mg/kg/injection, schedule: Q01DX009 (ip), vehicle: saline 113 % of control | dose: 3.3 mg/kg/injection, schedule: Q04DX003 (iv), vehicle: lactic acid 105 % of control | dose: 4.0 mg/kg/injection, schedule: Q01DX009 (oral), vehicle: lactic acid 105 % of control | dose: 4.0 mg/kg/injection, schedule: Q01DX009 (oral), vehicle: other 100 % of control and 96 % of control | dose: 4.0 mg/kg/injection, schedule: Q04DX003 (oral), vehicle: lactic acid 110 % of control | dose: 4.0 mg/kg/injection, schedule: Q04DX003 (oral), vehicle: other 97 % of control and 105 % of control and 103 % of control | dose: 6.0 mg/kg/injection, schedule: Q01DX009 (ip), vehicle: other 72 % of control | dose: 6.25 mg/kg/injection, schedule: Q01DX009 (ip), vehicle: saline 124 % of control | dose: 6.5 mg/kg/injection, schedule: Q01DX005 (iv), vehicle: lactic acid 112 % of control | dose: 6.5 mg/kg/injection, schedule: Q04DX003 (iv), vehicle: lactic acid 107 % of control | dose: 8.0 mg/kg/injection, schedule: Q01DX001 (oral), vehicle: lactic acid 110 % of control | dose: 8.0 mg/kg/injection, schedule: Q01DX009 (oral), vehicle: other 105 % of control and 103 % of control | dose: 8.0 mg/kg/injection, schedule: Q04DX003 (oral), vehicle: lactic acid 111 % of control | dose: 8.0 mg/kg/injection, schedule: Q04DX003 (oral), vehicle: other 105 % of control [middle of 4 runs] | dose: 8.0 mg/kg/injection, schedule: Q08DX002 (oral), vehicle: lactic acid 107 % of control | dose: 13.0 mg/kg/injection, schedule: Q04DX003 (iv), vehicle: lactic acid 120 % of control | dose: 16.0 mg/kg/injection, schedule: Q01DX001 (oral), vehicle: lactic acid 110 % of control | dose: 16.0 mg/kg/injection, schedule: Q04DX003 (oral), vehicle: other 97 % of control and 113 % of control and 110 % of control | dose: 16.0 mg/kg/injection, schedule: Q08DX002 (oral), vehicle: lactic acid 108 % of control | dose: 26.0 mg/kg/injection, schedule: Q04DX003 (iv), vehicle: lactic acid 120 % of control | dose: 32.0 mg/kg/injection, schedule: Q01DX001 (oral), vehicle: lactic acid 116 % of control | dose: 32.0 mg/kg/injection, schedule: Q04DX003 (oral), vehicle: other 121 % of control [middle of 4 runs] | dose: 32.0 mg/kg/injection, schedule: Q08DX002 (oral), vehicle: lactic acid 115 % of control | dose: 50.0 mg/kg/injection, schedule: Q01DX001 (ip), vehicle: saline sonified 102 % of control | dose: 64.0 mg/kg/injection, schedule: Q04DX003 (oral), vehicle: other 110 % of control
active: dose: 0.5 mg/kg/injection, schedule: Q01DX009 (ip), vehicle: Klucel (hydroxypropylcellulose) (HPC) 183 % of control | dose: 0.5 mg/kg/injection, schedule: Q01DX009 (ip), vehicle: lactic acid 150 % of control | dose: 0.8 mg/kg/injection, schedule: Q01DX009 (ip), vehicle: Klucel (hydroxypropylcellulose) (HPC) 180 % of control | dose: 0.8 mg/kg/injection, schedule: Q01DX009 (ip), vehicle: saline 177 % of control | dose: 1.0 mg/kg/injection, schedule: Q01DX009 (ip), vehicle: Klucel (hydroxypropylcellulose) (HPC) 160 % of control and 166 % of control and 189 % of control | dose: 1.0 mg/kg/injection, schedule: Q01DX009 (ip), vehicle: clinical formulation 183 % of control | dose: 1.0 mg/kg/injection, schedule: Q01DX009 (ip), vehicle: lactic acid 202 % of control | dose: 1.25 mg/kg/injection, schedule: Q01DX009 (ip), vehicle: saline 177 % of control | dose: 2.0 mg/kg/injection, schedule: Q01DX009 (ip), vehicle: Klucel (hydroxypropylcellulose) (HPC) 184 % of control | dose: 2.0 mg/kg/injection, schedule: Q01DX009 (ip), vehicle: clinical formulation 212 % of control | dose: 2.0 mg/kg/injection, schedule: Q01DX009 (ip), vehicle: lactic acid 218 % of control | dose: 2.0 mg/kg/injection, schedule: Q01DX009 (ip), vehicle: other 158 % of control | dose: 3.0 mg/kg/injection, schedule: Q01DX009 (ip), vehicle: Klucel (hydroxypropylcellulose) (HPC) 250 % of control | dose: 3.3 mg/kg/injection, schedule: Q01DX005 (iv), vehicle: lactic acid 155 % of control | dose: 3.75 mg/kg/injection, schedule: Q04DX003 (ip), vehicle: clinical formulation 173 % of control | dose: 5.0 mg/kg/injection, schedule: Q01DX009 (ip), vehicle: Klucel (hydroxypropylcellulose) (HPC) 223 % of control | dose: 7.5 mg/kg/injection, schedule: Q04DX003 (ip), vehicle: clinical formulation 193 % of control | dose: 8.0 mg/kg/injection, schedule: Q01DX001 (ip), vehicle: lactic acid 151 % of control | dose: 8.0 mg/kg/injection, schedule: Q04DX003 (ip), vehicle: other 188 % of control | dose: 12.5 mg/kg/injection, schedule: Q01DX009 (ip), vehicle: saline 163 % of control | dose: 12.5 mg/kg/injection, schedule: Q04DX003 (ip), vehicle: Klucel (hydroxypropylcellulose) (HPC) 166 % of control | dose: 15.0 mg/kg/injection, schedule: Q04DX003 (ip), vehicle: clinical formulation 173 % of control | dose: 16.0 mg/kg/injection, schedule: Q04DX003 (ip), vehicle: other 152 % of control | dose: 25.0 mg/kg/injection, schedule: Q01DX001 (ip), vehicle: saline sonified 166 % of control | dose: 25.0 mg/kg/injection, schedule: Q01DX001 (ip), vehicle: saline 160 % of control | dose: 25.0 mg/kg/injection, schedule: Q04DX003 (ip), vehicle: Klucel (hydroxypropylcellulose) (HPC) 285 % of control | dose: 100.0 mg/kg/injection, schedule: Q01DX001 (ip), vehicle: saline sonified 169 % of control

CC1(C)OC2OC(COC(=O)c3ccccc3)C(=O)C2O1 (centres undefined)
inactive: dose: 25.0 mg/kg/injection, schedule: Q01DX009 (ip), vehicle: saline with Tween-80 94 % of control | dose: 50.0 mg/kg/injection, schedule: Q01DX009 (ip), vehicle: saline with Tween-80 97 % of control | dose: 100.0 mg/kg/injection, schedule: Q01DX009 (ip), vehicle: saline with Tween-80 93 % of control | dose: 400.0 mg/kg/injection, schedule: Q01DX009 (ip), vehicle: saline with Tween-80 88 % of control

C=CCNC(=S)Nc1cc(Cl)ccc1C
inactive: dose: 50.0 mg/kg/injection, schedule: Q04DX003 (ip), vehicle: Klucel (hydroxypropylcellulose) (HPC) 103 % of control | dose: 100.0 mg/kg/injection, schedule: Q04DX003 (ip), vehicle: Klucel (hydroxypropylcellulose) (HPC) 100 % of control
